Earlier results on 1 compound are cited in patent US12478584B1, “Atomoxetine hydrochloride oral suspension and use thereof” (OWP Pharmaceuticals, Inc., priority 2025, dated 2025).

Structures are written as SMILES.

The conditions of the data set: standard temperature and pressure.

Regarding `CNCC[C@@H](Oc1ccccc1C)c1ccccc1.Cl` [Atomoxetine, (3R)—N-methyl-3-(2-methylphenoxy)-3-phenylpropan-1-amine], the water solubility is given as 27.8 mg/mL.
